Source: patent US11162077B2, “Apicidin-containing composition for inducing differentiation of mesenchymal stem cells into cardiac-committed cells” (CHONNAM NATIONAL UNIVERSITY HOSPITAL, priority 2015, dated 2021)

Tested on: human bone marrow-derived MSCs
Experiment: Real-time PCR of cardiac-specific marker genes after MSCs are treated with HDAC inhibitors
Type: cell-based
Conditions: 24 hours, TSA 0.5 μM, VPA 3 mM, AC 1 and 3 μM, vs vehicle, FIG. 1
Protocol: First, MSCs prepared in Example 1 were cultured for one day in a 6-well culture plate containing HIGH glucose/DMEM (4 mM L-glutamine, 4500 mg/L glucose, sodium pyruvate, 10% FBS, 100 U/ml penicillin, 100 μg/ml streptomycin), and then treated with TSA (0.5 μM), VPA (3 mM), and AC (1 and 3 μM) for 24 hours.
Afterward, the cell culture medium was removed from each sample, washed with PBS once, and homogenized with TRIzol for 10 minutes at room temperature, followed by centrifugation after the addition of chloroform. A supernatant obtained by centrifugation was harvested to purify total RNA, and cDNA was synthesized using a reverse transcriptase (MMLV) to be used as a template, followed by real-time PCR performed using the QuantiTect SYBR Green PCR kit. Accordingly, expression levels of the cardiac-specific marker genes (GATA4, Nkx2.5 and cTnI) were confirmed.

Compound	mRNA expression of GATA4	mRNA expression of cTnI	mRNA expression of Nkx2.5
CCCC(CCC)C(=O)O [VPA, valproic acid]	promoted	promoted	
CC(/C=C/C(=O)NO)=C\[C@@H](C)C(=O)c1ccc(N(C)C)cc1 [TSA, trichostatin A]	no specific effect	had significance	no specific effect
